Data published in patent US8003357B2, “Acidophilic enzymes” (Helmholtz-Zentrum Fuer Infektionsforschung GmbH, priority 2005, dated 2011).

Legend:
EstFA = EstFA (Ferroplasma acidiphilum, UniProt Q2PCE5); assay: Enantioselectivity of EstFA towards chiral esters and lactones; assay type: biochemical; settings: for % c / % e.e.: 100 mM citrate buffer pH 2.0, 5 μg EstFA, 10 hours; for E: enantioselectivity
Method: For an estimation of enantioselectivity of EstFA towards chiral esters and lactones, a number of primary and secondary alcohols as well as carboxylic acids and lactones were hydrolysed.
The above substrate specificities were tested in 96-well plates, using 100 mM citrate buffer (pH 2.0) in the presence of 5 μg pure EstFA. For the substrate, the concentrations between 10 nM and 10 mM were chosen. Progress of the reaction was followed by spectrophotometry using p-nitrophenol propionate as an indicator. The reaction was stopped after 10 hours by adjusting the pH to 8.0 by adding sodium hydroxide from a 100 mM stock solution and phenol red (0.8 mM) as a pH indicator. […] Ester hydrolysis of enantiomerically pure esters was measured colorimetrically in 5.0 mM EPPS buffer (N-(2-hydroxyethyl) piperazine-N′-(3′-propanesulfonic acid) at pH 8.0 and phenol red after termination of the reaction.

[1] = test system: αGluFA (acidic glucosidase); assay: Effect of cations and inhibitors on recombinant αGluFA activity; assay type: biochemical, Ferroplasma acidiphilum
Method: (§1) The enzymes used for the tests were heterologously expressed in E. coli using genomic coding sequences obtained from Ferroplasma acidiphilum. The acidic enzymes according to the invention were expressed in E. coli using the genomiccoding sequence for the respective enzyme from Ferroplasma acidiphilum, which are described in detail below. For enzymatic conversions, reaction conditions were in 100 mM sodium acetate buffer, 100 mM citrate buffer, 100 mM HEPES buffer for 2 minutes at 30° C., using p-nitrophenol propionate as the substrate for esterase, starch in the case of glycosidases, and HindIII digested λ DNA for ligase.

LigFA (acidic ligase) = assay: Effect of cations and inhibitors on recombinant LigFA activity; assay type: biochemical, Ferroplasma acidiphilum
Method: as §1

EstFA (acidic esterase) = assay: Effect of cations and inhibitors on recombinant EstFA activity; assay type: biochemical, Ferroplasma acidiphilum; design: substitution of Fe^2+ in EstFA: dose or concentration left out as unconfirmed; settings: for substitution of Fe^2+ in EstFA: as chloride salts
Method: The enzymes used for the tests were heterologously expressed in E. coli using genomic coding sequences obtained from Ferroplasma acidiphilum.
as §1, with “The” for “The enzymes used for the tests were heterologously expressed in E. coli using genomic coding sequences obtained from Ferroplasma acidiphilum. The”

αGluFA = αGluFA (Ferroplasma acidiphilum, UniProt Q5K3Q3); assay: Hydrolysis of glycosidic substrates by αGluFA; assay type: biochemical; settings: pH 3.0, 50° C., 100 μM FeCl2
Sequence of αGluFA (Q5K3Q3 entry or part of it): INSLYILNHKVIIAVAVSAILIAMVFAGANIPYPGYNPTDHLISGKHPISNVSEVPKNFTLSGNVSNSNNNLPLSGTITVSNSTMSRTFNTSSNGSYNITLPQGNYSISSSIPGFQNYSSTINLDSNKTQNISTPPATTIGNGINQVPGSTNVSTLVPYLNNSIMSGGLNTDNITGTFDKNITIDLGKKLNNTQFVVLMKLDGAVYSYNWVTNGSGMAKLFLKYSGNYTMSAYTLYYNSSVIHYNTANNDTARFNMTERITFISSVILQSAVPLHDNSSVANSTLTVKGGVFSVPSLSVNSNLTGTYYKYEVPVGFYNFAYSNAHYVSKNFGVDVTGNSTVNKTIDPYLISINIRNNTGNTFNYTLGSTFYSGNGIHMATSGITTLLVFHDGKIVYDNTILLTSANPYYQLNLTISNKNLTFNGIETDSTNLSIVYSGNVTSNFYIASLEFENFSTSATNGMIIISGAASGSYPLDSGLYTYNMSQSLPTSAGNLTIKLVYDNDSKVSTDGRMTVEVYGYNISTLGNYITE
Method: A variety of glycosidic substrates were examined for hydrolysis by αGluFA and kinetic constants were determined. For the assay, heterologously expressed αGluFA was incubated in 100 mM sodium citrate buffer, pH 3.0, containing 1% substrate, 100 μM FeCl2 and 5 μg αGluFA. […] Analysis was done by HPLC. Sample blanks were used for correction of spontaneous release of reducing sugar.
As substrates, sucrose, starch, amylose, amylopectin, pullulan and dextrin were used, the release of reducing sugars could also be determined by the dinitrosalicylic acid method, i.e. adding dinitrosalicylic acid solution to the reaction mixture, heating to 85° C. for 30 minutes, dilution with water and measuring absorbance at 450 nm. Activity towards p-nitrophenol α/β diglucopyranoside could be measured spectrophotometrically by following the absorbance at 346 nm using a molar extinction coefficient of 4800.

Sequence of EstFA (Q2PCE5 entry or part of it): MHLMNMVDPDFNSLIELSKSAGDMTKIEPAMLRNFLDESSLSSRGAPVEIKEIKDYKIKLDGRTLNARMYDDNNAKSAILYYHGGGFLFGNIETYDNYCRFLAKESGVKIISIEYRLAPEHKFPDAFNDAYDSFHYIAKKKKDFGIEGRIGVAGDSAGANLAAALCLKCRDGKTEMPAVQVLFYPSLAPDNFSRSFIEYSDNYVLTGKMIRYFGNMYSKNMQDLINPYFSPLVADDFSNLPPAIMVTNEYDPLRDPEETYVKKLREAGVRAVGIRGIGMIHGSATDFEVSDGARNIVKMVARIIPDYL

| Compound | % c (EstFA) | % e.e. (EstFA) | E (EstFA) | Activity (%) αGluFα ([1]; additive 10 mM) | Activity (%) αGluFα ([1]; additive 125 mM) | Activity (%) LigFA (LigFA (acidic ligase); additive 10 mM) | Activity (%) LigFA (LigFA (acidic ligase); additive 125 mM) | Activity (%) EstFA (EstFA (acidic esterase); additive 10 mM) | Activity (%) EstFA (EstFA (acidic esterase); additive 125 mM) | also measured |
| --- | --- | --- | --- | --- | --- | --- | --- | --- | --- | --- |
| CCCC(=O)OC(C)c1ccccc1 (centres unmarked) [1-phenyl ethylbutyrate] | 36.2% | 33.7% | 2.4 | – | – | – | – | – | – | – |
| [Ca+2] [Ca^2+] | – | – | – | 91.2% | 74.1% | 126.2% | 81.6% | 116.3% | 100.8% | substitution of Fe^2+ in EstFA (EstFA (acidic esterase)): could not substitute Fe^2+ |
| [Co+2] [Co^2+] | – | – | – | 72.0% | 82.8% | 102.5% | 88.7% | 55.2% | 68.3% | substitution of Fe^2+ in EstFA (EstFA (acidic esterase)): could not substitute Fe^2+ |
| O=C(O)CN(CCN(CC(=O)O)CC(=O)O)CC(=O)O [EDTA] | – | – | – | 10.6% | 9.4% | 17.2% | 7.0% | 16.0% | 9.5% | effect of complexing Fe^2+ on EstFA activity (EstFA (acidic esterase); added EDTA): inhibited the activity of EstFA in a reversible manner |
| [K+] [K^+] | – | – | – | 86.0% | 76.3% | 129.9% | 93.8% | 108.5% | 115.7% | – |
| [Li+] [Li^+] | – | – | – | 107.2% | 69.4% | 101.6% | 107.9% | 100.2% | 48.0% | – |
| [Mg+2] [Mg^2+] | – | – | – | 92.2% | 64.7% | 157.0% | 126.8% | 106.1% | 116.8% | substitution of Fe^2+ in EstFA (EstFA (acidic esterase)): could not substitute Fe^2+ |
| N [NH4^+] | – | – | – | 103.8% | 58.8% | 107.2% | 108.2% | 85.2% | 97.1% | – |
| [Na+] [Na^+] | – | – | – | 86.3% | 74.0% | 71.1% | 100% | 102.8% | 91.2% | – |
| CCCCCCCCCCCCOS(=O)(=O)[O-].[Na+] [SDS] | – | – | – | 2.4% | – | 32.6% | – | 75.2% | – | Activity (%) αGluFα ([1]; additive 50 mM): 0.5%; Activity (%) LigFA (LigFA (acidic ligase); additive 50 mM): 27.5%; Activity (%) EstFA (EstFA (acidic esterase); additive 50 mM): 47.3% |
| [Sr+2] [Sr^2+] | – | – | – | 98.0% | 71.3% | 90.7% | 20.2% | 102.1% | 106.5% | – |
| [Zn+2] [Zn^2+] | – | – | – | 1.1% | 16.2% | 5.3% | 10.2% | 57.8% | 4.6% | – |
| COC(=O)[C@H](C)N [alanine methylester] | 8.71% | 2.5% | 3.8 | – | – | – | – | – | – | – |
| O=C1CCC(CO)O1 (centres unmarked) [dihydro-5-hydroxymethyl-2(3H)-furanone] | 39.3% | 88.6% | 29.7 | – | – | – | – | – | – | – |
| [Mn+2] [manganese] | – | – | – | – | – | – | – | – | – | substitution of Fe^2+ in EstFA (EstFA (acidic esterase)): could not substitute Fe^2+ |
| CC(=O)OC1CC(C)CCC1C(C)C (centres unmarked) [menthyl acetate] | 42.2% | 78.4% | 14.7 | – | – | – | – | – | – | – |
| OCCS [mercaptoethanol] | – | – | – | – | – | – | – | – | – | Activity (%) EstFA (EstFA (acidic esterase); additive 1 mM): 55% |
| COC(=O)C(C)O (centres unmarked) [methyl lactate] | 3.4% | 2.38% | 1.1 | – | – | – | – | – | – | – |
| COC(=O)C(C)CO (centres unmarked) [methyl-3-hydroxy-2-methylpropionate] | 30.8% | 98% | 116.2 | – | – | – | – | – | – | – |
| COC(=O)CC(C)O (centres unmarked) [methyl-3-hydroxybutyrate] | 26.2% | 98% | 42.8 | – | – | – | – | – | – | – |
| [Cl][Ni][Cl] [nickel] | – | – | – | – | – | – | – | – | – | substitution of Fe^2+ in EstFA (EstFA (acidic esterase)): could not substitute Fe^2+ |
| CC1(C)COC(=O)C1O (centres unmarked) [pantolactone] | 10.06% | 39.36% | 2.40 | – | – | – | – | – | – | – |
| CCCC(=O)OCC1COC(C)(C)O1 (centres unmarked) [solketal butyrate] | 29.0% | 74.46% | 9.2 | – | – | – | – | – | – | – |
| COC(=O)[C@@H](N)Cc1c[nH]c2ccccc12 [tryptophane methylester] | 4.33% | 2.12% | 1.1 | – | – | – | – | – | – | – |
| Triton X-100 | – | – | – | – | – | – | – | – | – | Activity (%) αGluFα ([1]; additive 1%): 95.7%; Activity (%) αGluFα ([1]; additive 3%): 47.4%; Activity (%) LigFA (LigFA (acidic ligase); additive 1%): 62.3%; Activity (%) LigFA (LigFA (acidic ligase); additive 3%): 9.0%; Activity (%) EstFA (EstFA (acidic esterase); additive 1%): 74.6%; Activity (%) EstFA (EstFA (acidic esterase); additive 3%): 43.5% |
| amylopectin | – | – | – | – | – | – | – | – | – | Kcat (αGluFA): 89 ± 10.5 s⁻¹; Km (αGluFA): 1.05 ± 0.19 mg/mL |
| amylose | – | – | – | – | – | – | – | – | – | Kcat (αGluFA): 126.0 ± 7.5 s⁻¹; Km (αGluFA): 7.49 ± 0.88 mg/mL |
| dextrin | – | – | – | – | – | – | – | – | – | Kcat (αGluFA): 93.0 ± 11^ s^−1; Km (αGluFA): 0.221 ± 0.03 mg/mL |
| pullulan | – | – | – | – | – | – | – | – | – | Kcat (αGluFA): 2.8 ± 0.1 s⁻¹; Km (αGluFA): 11.0 ± 0.1 mg/mL |
| soluble starch | – | – | – | – | – | – | – | – | – | Kcat (αGluFA): 94.0 ± 11^ s^−1; Km (αGluFA): 0.11 ± 0.02 mg/mL |
